# From patent US9737525B2, “Small molecule activators of NRF2 pathway” (The General Hospital Corporation, priority 2013, dated 2017)
# Legend:
# primary microglia = assay: IL-6 release from primary microglia of wild type and YAC128 mice (ELISA); assay type: cell-based, mouse; details: CSE and INF-γ stimulated wild type and YAC128 microglia
# Description: Whole brains were obtained from post-natal 1 to 3 day old wild type and YAC128 mouse pups on the FVB/N strain background and placed in Hanks Balanced Salt Solution (HBSS; Invitrogen) on ice. Meninges were removed and the remaining brain tissue was placed into growth medium (DMEM [Invitrogen], 10% FBS [PAA], 1% L-glutamine [Invitrogen], 1% penicillin/streptomycin [Invitrogen]), and homogenized using a 5 ml pipette. Cells of each brain were pelleted, re-suspended in growth medium and transferred into a T150 flask, cultured at 37° C. with 5% CO2. Growth medium was replaced after 24 hr and then every 7 days. After 18 to 21 days in culture, loosely attached microglia were harvested and seeded at 1.4×10^5 cells/ml with pre-incubated conditioned media into 96-well PRIMARIA™ tissue culture plates (BD Falcon). Adherent astrocytes were plated at 1.4×10^5 cells/ml in 10% FBS media for 24 hr in 96-well PRIMARIA™ tissue culture plates. After the initial isolation microglia and astrocytes were seeded at a density of 1.4×10^5 cells/ml into 96-well PRIMARIA™ tissue culture plates. […] Cells were lysed and total protein levels were determined using the microBCA kit (Thermo Scientific). Supernatants were analyzed using mouse IL-6 ELISA (e-Biocience) and IL-6 levels were normalized to total protein levels.
# NRF2 responsive genes = assay: Microarray gene expression profiling in mutant HTT ST14A cells (Case III); assay type: cell-based, rat; details: 5 μM 24 hours vs untreated
# Description: RNA was extracted from HD mutant and wild type ST14A cells, differentiated for 24 hours and treated with vehicle (DMSO) or with 5 μM MIND4, using the RNeasy kit (Qiagen). Labeled cRNAs were prepared and hybridized to Affymetrix GeneChip Rat Genome 230 2.0 microarrays according to the manufacturer's instructions. Affymetrix CEL (intensity) files from hybridized arrays were imported into the Partek Genome Suite, Partek Incorporated, for biostatistical analysis. 2 CEL files were used for each experimental condition: wild type (WT) untreated, MIND4 treated (WT/MIND4), mutant (MTT) untreated, and mutant (MTT) MIND4-terated (MTT/MIND4). Two-way ANOVA was performed with interaction term included and three of the evaluated contrasts were of interest (Case I, II, and III). Gene lists were created for each of the three contrasts using the thresholds of absolute value of fold-change>1.5 and p-value with False Discovery Rate (FDR)<0.05. The lengths of the gene lists are for Case I (DP)-1765 genes, for Case II (TP)-1797 genes, and for Case III (MDDP)-268 genes. These three gene lists were imported into Ingenuity IPA for pathway and network analyses. These analyses provided Networks (graph structures of molecules connected by relationships in the IPA knowledgebase), Functions (lists of molecules grouped together due to their contribution to a biological function) and Canonical Pathways (molecules and relationships that participate in a biological pathway). Scores are assigned according to the probability that the genes from the user's list might appear in the function or pathway by chance (right-tailed Fisher's Exact Test).
# To determine whether MIND4 might engage targets other than SIRT2, the gene expression changes in treated versus untreated mutant HTT and wild type ST14A cells were evaluated using an approach described previously (Luthi-Carter et al., 2010). RNA from rat embryonic striatal (ST14A) cells stably expressing a 546 amino acid HTT fragment containing either an expanded (128Q) or wild type (26Q) repeat was extracted following treatment with 5 μM MIND4 for 24 hours was extracted and run on Affymetrix rat microarrays (Affy GeneChip Rat Genome 230 2.0 array) as described above in General Methods. Two replicates for each of the experimental conditions were imported into Partek Genome Suite for biostatistical analysis. Genes showing significant differential expression were identified by ANOVA, for three contrasts, resulting in three gene-lists: mutant HD (MT) vs. wild type (WT)=Case I (Disease Phenotype); MT/MIND4 treated vs. WT=Case II (Treatment Phenotype), and MT/MIND4 treated vs. MT=Case III (Mutant Drug-Dependent Phenotype). These represented transcriptional alterations in MT compared to WT cells (Case I), in MT treated compared to WT cells (Case II), and in MT treated cells compared to untreated MT cells (Case III). The lists, Cases I-III, were then imported into Ingenuity Pathway Analysis (IPA—Ingenuity® Systems, www.ingenuity.com) for pathway and network analyses.
# [1] = system: medium spiny neurons (MSNs) expressing mHTTex1; assay: Acutely transfected rat brain slice culture assay; assay type: cell-based
# Description: Coronal brain slices (250 μm thick) containing both cortex and striatum were prepared from CD Sprague-Dawley rat pups at postnatal day 10 and placed into interface culture as previously described (Reinhart et al., 2011). A biolistic device (Helios Gene Gun; Bio-Rad) was then used to co-transfect the brain slices with YFP visual reporter and a 90 amino acid mutant huntingtin plasmid containing human htt exon-1 harboring a 73 CAG repeat to induce neurodegeneration of medium spiny neurons (MSNs). mHTTex1 expression induced progressive neurodegeneration of medium spiny neurons (MSNs) compared to controls over a period of 4 days.
# MIND4 was added to the culture wells at the time of slice preparation and transfection to a final DMSO concentration of 0.1%; this concentration of DMSO was also added to all control wells. The positive control used for these experiments was the pan-caspase inhibitor Boc-D-FMK at 100 μM (Varna et al., 2007). YFP co-transfected MSNs were identified 4 days after incubation by their location within the striatum and by their characteristic dendritic arborization as previously described (Crittenden et al., 2010; Reinhart et al., 2011). […] Ordinate axis expresses the mean numbers of healthy YFP-positive MSNs per striatal region in each brain slice. […]
smiles,measurement,setting,value
O=[N+]([O-])c1ccc(Sc2nnc(COc3ccccc3)n2-c2ccccc2)nc1 [MIND4-17],IL-6 secretion,primary microglia,reduced the amount of IL-6 secreted
"O=[N+]([O-])c1ccc(Sc2nnc(COc3ccccc3)n2-c2ccccc2)c2ncccc12 [MIND4, 5-nitro-8-{[5-(phenoxymethyl)-4-phenyl-4H-1,2,4-triazol-3-yl]thio}quinoline]","Fold Increase, AOX1",NRF2 responsive genes,3.18 fold
same,"Fold Increase, CAT",NRF2 responsive genes,1.72 fold
same,"Fold Increase, DNAJA4",NRF2 responsive genes,1.53 fold
same,"Fold Increase, DNAJB9",NRF2 responsive genes,1.63 fold
same,"Fold Increase, FRA1",NRF2 responsive genes,3.17 fold
same,"Fold Increase, GCLC",NRF2 responsive genes,2.11 fold
same,"Fold Increase, GCLM",NRF2 responsive genes,3.32 fold
same,"Fold Increase, GSR",NRF2 responsive genes,2.14 fold
same,"Fold Increase, GSTA3",NRF2 responsive genes,20.09 fold
same,"Fold Increase, GSTM5",NRF2 responsive genes,1.89 fold
same,"Fold Increase, GSTP1",NRF2 responsive genes,2.21 fold
same,"Fold Increase, GSTT2/GSTT2B",NRF2 responsive genes,1.96 fold
same,"Fold Increase, HERPUD1",NRF2 responsive genes,1.55 fold
same,"Fold Increase, HO-1",NRF2 responsive genes,6.14 fold
same,"Fold Increase, KEAP1",NRF2 responsive genes,1.53 fold
same,"Fold Increase, MAFF",NRF2 responsive genes,1.75 fold
same,"Fold Increase, MGST1",NRF2 responsive genes,1.84 fold
same,"Fold Increase, MGST2",NRF2 responsive genes,2.94 fold
same,"Fold Increase, MRP4",NRF2 responsive genes,3.37 fold
same,"Fold Increase, NQO1",NRF2 responsive genes,7.34 fold
same,"Fold Increase, SQSTM1",NRF2 responsive genes,1.82 fold
same,"Fold Increase, TRXR1",NRF2 responsive genes,3.31 fold
same,Neuroprotection relative to Boc-D-FMK at 100 μM,[1]; 10 μM,comparable to the efficacy of a reference compound
same,Protection against mHTTex1-induced neurodegeneration of MSNs,"[1]; concentration-dependent, 4 days",significantly protected against mHTTex1-induced neurodegeneration
